Assays:
[1] = molecular target: T1, Human thrombin (Homo sapiens, UniProt P00734); assay: thrombin protease inhibition assay (chromogenic substrate S-2238); format: biochemical; conditions: 3 nM thrombin, 125 μM S-2238, 10 min pre-incubation, RT, read at 405 nm
T1 construct: Thrombin (fIIa, the active form of prothrombin) is another serine protease; purchased Haematologic Technologies Inc
Procedure: The thrombin activity reported herein (e.g., Table A) was obtained as follows. […] Thrombin was assayed in buffer containing 0.05 M Tris (pH 7.4), 0.015 M NaCl and 0.01% PEG-8000. The final concentration of enzyme used was 3 nM thrombin. […] All assays were performed in 96-well microtiter plates at room temperature (RT). […] Inhibitor IC50 values were determined by adding test compound as ten point, three-fold serial dilutions in buffer solution, as known in the art. The plate was read at 10 minutes after substrate addition. The IC50 was calculated by plotting the percent (%) inhibition against compound concentration and fitting the data to a constrained four parameter sigmoidal curve, as known in the art.

[2] = molecular target: T2, Human KLKB1 protein (Homo sapiens, UniProt P03952); assay: KLKB1 kallikrein protease inhibition assay (chromogenic substrate S-2302); format: biochemical; conditions: 3 nM KLKB1, 250 μM S-2302, 10 min pre-incubation, RT, read at 405 nm
T2 construct: purchased Enzyme Research Labs
T2 sequence (P03952 391-638 limits assumed): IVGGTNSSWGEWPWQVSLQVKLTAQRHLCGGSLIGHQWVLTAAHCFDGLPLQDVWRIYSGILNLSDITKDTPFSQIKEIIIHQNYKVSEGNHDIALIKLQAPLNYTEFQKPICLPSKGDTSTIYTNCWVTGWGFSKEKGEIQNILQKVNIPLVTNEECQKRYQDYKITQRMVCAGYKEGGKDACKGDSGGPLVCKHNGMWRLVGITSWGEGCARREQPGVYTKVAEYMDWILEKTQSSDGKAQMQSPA
T2 sequence (P03952 20-390 partner limits assumed): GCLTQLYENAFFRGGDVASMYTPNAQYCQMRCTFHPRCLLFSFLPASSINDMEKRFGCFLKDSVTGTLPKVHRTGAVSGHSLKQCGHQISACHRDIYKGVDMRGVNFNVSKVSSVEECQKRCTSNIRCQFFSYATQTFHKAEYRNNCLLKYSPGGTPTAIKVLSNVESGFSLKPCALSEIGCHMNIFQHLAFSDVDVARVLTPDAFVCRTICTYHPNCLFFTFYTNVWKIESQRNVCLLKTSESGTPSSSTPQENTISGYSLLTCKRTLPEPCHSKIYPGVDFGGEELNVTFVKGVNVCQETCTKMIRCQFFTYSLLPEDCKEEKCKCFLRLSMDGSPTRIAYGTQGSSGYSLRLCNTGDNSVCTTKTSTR
Procedure: The KLKB1 kallikrein activity reported herein (e.g., Table A) was obtained as follows. Human KLKB1 protein was obtained from Enzyme Research Labs. The chromogenic substrate S-2302 was obtained from DiaPharma. KLKB1 was assayed in buffer containing 0.05 M Tris (pH 7.4), 0.01 M NaCl and 0.2% w/v PEG-8000. The final concentration of enzyme used was 3 nM KLKB1. The final concentration of substrate used was 250 μM S-2302 for KLKB1. All assays were performed in 96-well microtiter plates at room temperature (RT). […] The plate was read at 10 minutes after substrate addition. The IC50 was calculated by plotting the percent (%) inhibition against compound concentration and fitting the data to a constrained four parameter sigmoidal curve, as known in the art.

[3] = system: malignant breast tumors; conditions: treated mice, cited from earlier work

SMILES	IC50 [1]	IC50 [2]	reduction in tumor volume ([3]; at 4 weeks)	reduced tumor cells in the blood and liver micrometastases [3]
O=C(c1ccoc1)n1nc(-c2ccn(Cc3cccnc3)c(=O)c2)cc1NCc1ccc(Cl)s1 [Entry 19, 4-(5-[(5-chlorothiophen-2-yl)methyl]amino-1-(furan-3-carbonyl)-1H-pyrazol-3-yl)-1-(pyridin-3-ylmethyl)-1,2-dihydropyridin-2-one]	< 100 nM	< 100 nM		
O=C(Cn1ccc(-c2cc(NCc3ccc(Cl)s3)n(C(=O)c3ccoc3)n2)cc1=O)N1CCOCC1 [Entry 20, 4-(5-[(5-chlorothiophen-2-yl)methyl]amino-1-(furan-3-carbonyl)-1H-pyrazol-3-yl)-1-[2-(morpholin-4-yl)-2-oxoethyl]-1,2-dihydropyridin-2-one]	100 to 1000 nM	1000 to 10000 nM		
O=C(c1ccoc1)n1nc(-c2ccn(CCN3CCOCC3)c(=O)c2)cc1NCc1ccc(Cl)s1 [Entry 21, 4-(5-[(5-chlorothiophen-2-yl)methyl]amino-1-(furan-3-carbonyl)-1H-pyrazol-3-yl)-1-[2-(morpholin-4-yl)ethyl]-1,2-dihydropyridin-2-one]	< 100 nM	100 to 1000 nM		
O=C(c1ccsc1)n1nc(-c2cc[nH]c(=O)c2)cc1NCc1ccc(Cl)s1 [Entry 22, 4-(5-[(5-chlorothiophen-2-yl)methyl]amino-1-(thiophene-3-carbonyl)-1H-pyrazol-3-yl)-1,2-dihydropyridin-2-one]	< 100 nM	100 to 1000 nM		
COCCn1ccc(-c2cc(NCc3ccc(Cl)s3)n(C(=O)c3ccsc3)n2)cc1=O [Entry 23, 4-(5-[(5-chlorothiophen-2-yl)methyl]amino-1-(thiophene-3-carbonyl)-1H-pyrazol-3-yl)-1-(2-methoxyethyl)-1,2-dihydropyridin-2-one]	< 100 nM	100 to 1000 nM		
O=C(c1ccsc1)n1nc(-c2ccn(Cc3ccccn3)c(=O)c2)cc1NCc1ccc(Cl)s1 [Entry 24, 4-(5-[(5-chlorothiophen-2-yl)methyl]amino-1-(thiophene-3-carbonyl)-1H-pyrazol-3-yl)-1-(pyridin-2-ylmethyl)-1,2-dihydropyridin-2-one]	< 100 nM	< 100 nM		
O=C(c1ccsc1)n1nc(-c2ccn(Cc3cccnc3)c(=O)c2)cc1NCc1ccc(Cl)s1 [Entry 25, 4-(5-[(5-chlorothiophen-2-yl)methyl]amino-1-(thiophene-3-carbonyl)-1H-pyrazol-3-yl)-1-(pyridin-3-ylmethyl)-1,2-dihydropyridin-2-one]	< 100 nM	< 100 nM		
O=C(Cn1ccc(-c2cc(NCc3ccc(Cl)s3)n(C(=O)c3ccsc3)n2)cc1=O)N1CCOCC1 [Entry 26, 4-(5-[(5-chlorothiophen-2-yl)methyl]amino-1-(thiophene-3-carbonyl)-1H-pyrazol-3-yl)-1-[2-(morpholin-4-yl)-2-oxoethyl]-1,2-dihydropyridin-2-one]	100 to 1000 nM	1000 to 10000 nM		
O=C(c1ccsc1)n1nc(-c2ccn(CCN3CCOCC3)c(=O)c2)cc1NCc1ccc(Cl)s1 [Entry 27, 4-(5-[(5-chlorothiophen-2-yl)methyl]amino-1-(thiophene-3-carbonyl)-1H-pyrazol-3-yl)-1-[2-(morpholin-4-yl)ethyl]-1,2-dihydropyridin-2-one]	< 100 nM	100 to 1000 nM		
O=C(c1ccsc1)n1nc(-c2cc(-c3ccccc3)[nH]c(=O)c2)cc1NCc1ccc(Cl)s1 [Entry 28, 4-(5-[(5-chlorothiophen-2-yl)methyl]amino-1-(thiophene-3-carbonyl)-1H-pyrazol-3-yl)-6-phenyl-1,2-dihydropyridin-2-one]	> 100000 nM	> 100000 nM		
O=c1cc(-c2cc(NCc3ccc(Cl)s3)[nH]n2)cc[nH]1 [Entry 29, 4-(5-[(5-chlorothiophen-2-yl)methyl]amino-1H-pyrazol-3-yl)-1,2-dihydropyridin-2-one]	> 100000 nM	> 100000 nM		
O=c1cc(-c2cc(NCc3ccc(Cl)s3)[nH]n2)ccn1Cc1cccnc1 [Entry 30, 4-(5-[(5-chlorothiophen-2-yl)methyl]amino-1H-pyrazol-3-yl)-1-(pyridin-3-ylmethyl)-1,2-dihydropyridin-2-one]	> 100000 nM	> 100000 nM		
CC(C)(C)C(=O)n1nc(-c2c[nH]c(=O)c(-c3ccccc3)c2)cc1NCc1ccc(Cl)s1 [Entry 35, 5-(5-[(5-chlorothiophen-2-yl)methyl]amino-1-(2,2-dimethylpropanoyl)-1H-pyrazol-3-yl)-3-phenyl-1,2-dihydropyridin-2-one]	1000 to 10000 nM	10000 to 100000 nM		
O=C(c1ccsc1)n1nc(-c2ccc(=O)[nH]c2)cc1NCc1ccc(Cl)s1 [Entry 37, 5-(5-[(5-chlorothiophen-2-yl)methyl]amino-1-(thiophene-3-carbonyl)-1H-pyrazol-3-yl)-1,2-dihydropyridin-2-one]	100 to 1000 nM	1000 to 10000 nM		
O=c1ccc(-c2cc(NCc3ccc(Cl)s3)[nH]n2)c[nH]1 [Entry 38, 5-(5-[(5-chlorothiophen-2-yl)methyl]amino-1H-pyrazol-3-yl)-1,2-dihydropyridin-2-one]	> 100000 nM	> 100000 nM		
CC(C)(C)C(=O)n1nc(-c2cc(Br)c[nH]c2=O)cc1NCc1ccc(Cl)s1 [Entry 39, 5-bromo-3-(5-[(5-chlorothiophen-2-yl)methyl]amino-1-(2,2-dimethylpropanoyl)-1H-pyrazol-3-yl)-1,2-dihydropyridin-2-one]	< 100 nM	10000 to 100000 nM		
CC(C)(C)C(=O)n1nc(-c2cc(Br)cn(CC(=O)N3CCOCC3)c2=O)cc1NCc1ccc(Cl)s1 [Entry 40, 5-bromo-3-(5-[(5-chlorothiophen-2-yl)methyl]amino-1-(2,2-dimethylpropanoyl)-1H-pyrazol-3-yl)-1-[2-(morpholin-4-yl)-2-oxoethyl]-1,2-dihydropyridin-2-one]	< 100 nM	1000 to 10000 nM		
O=C(c1ccsc1)n1nc(-c2cc(Br)c[nH]c2=O)cc1NCc1ccc(Cl)s1 [Entry 41, 5-bromo-3-(5-[(5-chlorothiophen-2-yl)methyl]amino-1-(thiophene-3-carbonyl)-1H-pyrazol-3-yl)-1,2-dihydropyridin-2-one]	< 100 nM	100 to 1000 nM		
O=c1[nH]cc(Br)cc1-c1cc(NCc2ccc(Cl)s2)[nH]n1 [Entry 42, 5-bromo-3-(5-[(5-chlorothiophen-2-yl)methyl]amino-1H-pyrazol-3-yl)-1,2-dihydropyridin-2-one]	> 100000 nM	10000 to 100000 nM		
C=Cc1ccc(-c2cc(NCc3ccc(Cl)s3)n(C(=O)C(C)(C)C)n2)[nH]c1=O [Entry 46, 6-(5-[(5-chlorothiophen-2-yl)methyl]amino-1-(2,2-dimethylpropanoyl)-1H-pyrazol-3-yl)-3-ethenyl-1,2-dihydropyridin-2-one]	< 100 nM	10000 to 100000 nM		
O=c1cccc(-c2cc(NCc3ccc(Cl)s3)[nH]n2)[nH]1 [Entry 47, 6-(5-[(5-chlorothiophen-2-yl)methyl]amino-1H-pyrazol-3-yl)-1,2-dihydropyridin-2-one]	> 100000 nM	> 100000 nM		
CC(C)(C)C(=O)n1nc(-c2cc(Br)[nH]c(=O)c2)cc1NCc1ccc(Cl)s1 [Entry 48, 6-bromo-4-(5-[(5-chlorothiophen-2-yl)methyl]amino-1-(2,2-dimethylpropanoyl)-1H-pyrazol-3-yl)-1,2-dihydropyridin-2-one]	< 100 nM	10000 to 100000 nM		
CCCCCCOC(=O)N=C(N)c1ccc(NCc2nc3cc(C(=O)N(CCC(=O)OCC)c4ccccn4)ccc3n2C)cc1 [dabigatran etexilate]			50%	50-60%

— patent US10189810B2, “Pyrazolyl-substituted pyridone compounds as serine protease inhibitors” (VERSEON CORPORATION, priority 2014, dated 2019)
